Data: ChEMBL document CHEMBL1156497, “EF24 induces G2/M arrest and apoptosis in cisplatin-resistant human ovarian cancer cells by increasing PTEN expression” (J Biol Chem, 2007)
Blank lines part the entries; values can stand above or below the compound they belong to. Active and inactive are the calls of the source. The rule behind the calls is not given here. Residues, ends and D or L forms follow the SMILES beside them. *: point of attachment. Cbz = O=C(OCc1ccccc1)*

How the values were obtained:
A2780 [1] = assay: Induction of apoptosis in cisplatin-resistant human A2780 cells assessed as inhibition of PTEN degradation at 2 uM by immunoblot analysis; format: functional, cell-based
A2780 [2] = assay: Induction of apoptosis in cisplatin-resistant human A2780 cells assessed as decrease in phosphorylated Akt level at 2 uM after 12 hrs by immunoblot analysis; format: functional, cell-based
A2780 [3] = assay: Induction of apoptosis in cisplatin-resistant human A2780 cells assessed as accumulation at G2/M phase at 2 uM after 3 hrs by flow cytometry relative to control; format: functional
A2780 [4] = assay: Reversal of induction of apoptosis in cisplatin-resistant human A2780 cells assessed as inhibition of cleaved caspase-3 by immunoblot analysis in presence of PTEN-specific siRNA; format: functional, cell-based
A2780 [5] = assay: Induction of apoptosis in cisplatin-resistant human A2780 cells assessed as decrease in pERK1/2 level at 2 uM after 24 hrs by immunoblot analysis; format: functional, cell-based
A2780 [6] = assay: Cell viability of human cisplatin-sensitive human A2780 cells after 24 hrs by MTT assay; format: functional, cell-based; conditions: A2780, 24 h
CHO = assay: Cell viability of CHO cells after 24 hrs by MTT assay; format: functional, cell-based; conditions: Cricetulus griseus
A2780 [7] = assay: Induction of apoptosis in cisplatin-resistant human A2780 cells assessed as accumulation at G2/M phase at 2 uM after 6 hrs by flow cytometry relative to control; format: functional
A2780 [8] = assay: Induction of apoptosis in cisplatin-resistant human A2780 cells assessed as accumulation at G2/M phase at 2 uM after 12 hrs by flow cytometry relative to control; format: functional
A2780 [9] = assay: Induction of apoptosis in cisplatin-resistant human A2780 cells assessed as enhancement of p53 level at 2 uM by immunoblot analysis; format: functional, cell-based
A2780 [10] = assay: Induction of apoptosis in cisplatin-resistant human A2780 cells assessed as enhancement of p21 level at 2 uM by immunoblot analysis; format: functional, cell-based
A2780 [11] = assay: Induction of apoptosis in cisplatin-resistant human A2780 cells assessed as enhancement of p27 level at 2 uM by immunoblot analysis; format: functional, cell-based
A2780 [12] = assay: Induction of apoptosis in cisplatin-resistant human A2780 cells assessed as decrease in MDM2 level at 2 uM by immunoblot analysis; format: functional, cell-based; conditions: TDE = time-dependent effect
A2780 [13] = assay: Induction of apoptosis in cisplatin-resistant human A2780 cells assessed as decrease in CycB1 expression at 2 uM by immunoblot analysis; format: functional, cell-based; conditions: TDE = time-dependent effect
A2780 [14] = assay: Induction of apoptosis in cisplatin-resistant human A2780 cells assessed as decrease in CycA expression at 2 uM by immunoblot analysis; format: functional, cell-based; conditions: TDE = time-dependent effect
A2780 [15] = assay: Induction of apoptosis in cisplatin-resistant human A2780 cells assessed as decrease in CycD1 expression at 2 uM by immunoblot analysis; format: functional, cell-based; conditions: TDE = time-dependent effect
A2780 [16] = assay: Induction of apoptosis in cisplatin-resistant human A2780 cells assessed as decrease in Cdc2 expression at 2 uM by immunoblot analysis; format: functional, cell-based; conditions: TDE = time-dependent effect
A2780 [17] = assay: Induction of apoptosis in cisplatin-resistant human A2780 cells assessed as decrease in Cdc25C expression at 2 uM by immunoblot analysis; format: functional, cell-based; conditions: TDE = time-dependent effect
A2780 [18] = assay: Induction of apoptosis in cisplatin-resistant human A2780 cells assessed as change in Wee1 level at 2 uM by immunoblot analysis; format: functional, cell-based
A2780 [19] = assay: Induction of apoptosis in cisplatin-resistant human A2780 cells assessed as accumulation at sub-G1 phase at 2 uM after 24 hrs by flow cytometry relative to control; format: functional
A2780 [20] = assay: Induction of apoptosis in cisplatin-resistant human A2780 cells assessed as activation of caspase cascade at 2 uM after 6 to 24 hrs by Western blotting; format: functional, cell-based
A2780 [21] = assay: Reversal of induction of apoptosis in cisplatin-resistant human A2780 cells assessed as accumulation at sub-G1 phase at 2 uM after 24 hrs by flow cytometry in presence of z-VAD-fmk; format: functional, cell-based
A2780 [22] = assay: Induction of apoptosis in cisplatin-resistant human A2780 cells assessed as increase in FasL receptor expression at 2 uM by immunoblot analysis; format: functional, cell-based; conditions: TDE = time-dependent effect
A2780 [23] = assay: Induction of apoptosis in cisplatin-resistant human A2780 cells assessed as increase in Fas/CD95 receptor expression at 2 uM after 6 to 24 hrs by immunoblot analysis; format: functional, cell-based
A2780 [24] = assay: Induction of apoptosis in cisplatin-resistant human A2780 cells assessed as increase in TNFR1 expression at 2 uM after 6 to 24 hrs by immunoblot analysis; format: functional, cell-based
A2780 [25] = assay: Induction of apoptosis in cisplatin-resistant human A2780 cells assessed as inhibition of pPTEN degradation at 2 uM by immunoblot analysis; format: functional, cell-based
A2780 [26] = assay: Reversal of induction of apoptosis in cisplatin-resistant human A2780 cells assessed as suppression of PTEN by immunoblot analysis in presence of PTEN-specific siRNA; format: functional, cell-based
A2780 [27] = assay: Reversal of induction of apoptosis in cisplatin-resistant human A2780 cells assessed as increase of Akt phosphorylation by immunoblot analysis in presence of PTEN-specific siRNA; format: functional, cell-based
A2780 [28] = assay: Reversal of induction of apoptosis in cisplatin-resistant human A2780 cells assessed as decrease of p53 level by immunoblot analysis in presence of PTEN-specific siRNA; format: functional, cell-based
A2780 [29] = assay: Reversal of induction of apoptosis in cisplatin-resistant human A2780 cells assessed as decrease of p21 level by immunoblot analysis in presence of PTEN-specific siRNA; format: functional, cell-based
A2780 [30] = assay: Reversal of induction of apoptosis in cisplatin-resistant human A2780 cells assessed as inhibition of cleaved caspase-7 by immunoblot analysis in presence of PTEN-specific siRNA; format: functional, cell-based
A2780 [31] = assay: Reversal of induction of apoptosis in cisplatin-resistant human A2780 cells assessed as inhibition of cleaved PARP by immunoblot analysis in presence of PTEN-specific siRNA; format: functional, cell-based
A2780 [32] = assay: Cell viability of cisplatin-resistant human A2780 cells overexpressing PTEN at 2 uM after 24 hrs by MTT assay; format: functional, cell-based
A2780 [33] = assay: Induction of apoptosis in cisplatin-resistant human A2780 cells overexpressing PTEN assessed as inhibition of pAkt by Western blotting; format: functional, cell-based
A2780 [34] = assay: Induction of apoptosis in cisplatin-resistant human A2780 cells overexpressing PTEN assessed as enhancement of p53 by Western blotting; format: functional, cell-based
A2780 [35] = assay: Induction of apoptosis in cisplatin-resistant human A2780 cells overexpressing PTEN assessed as enhancement of p21 by Western blotting; format: functional, cell-based
A2780 [36] = assay: Induction of apoptosis in cisplatin-resistant human A2780 cells overexpressing PTEN assessed as enhancement of cleaved caspase-3 by Western blotting; format: functional, cell-based
A2780 [37] = assay: Induction of apoptosis in cisplatin-resistant human A2780 cells overexpressing PTEN assessed as enhancement of cleaved PARP by Western blotting; format: functional, cell-based
A2780 [38] = assay: Induction of apoptosis in cisplatin-resistant human A2780 cells assessed as enhancement of p53 phosphorylation at 2 uM by immunoblot analysis; format: functional, cell-based
A2780 [39] = assay: Induction of apoptosis in cisplatin-resistant human A2780 cells assessed as decrease in pERK1/2 level at 2 uM after 48 hrs by immunoblot analysis; format: functional, cell-based
A2780 [40] = assay: Cell viability of cisplatin-resistant human A2780 cells after 24 hrs by MTT assay; format: functional, cell-based; conditions: A2780, 24 h

SMILES: CC(C)C[C@@H](C=O)NC(=O)[C@H](CC(C)C)NC(=O)[C@H](CC(C)C)NC(=O)OCc1ccccc1 (Cbz-Leu-Leu-Leu-aldehyde)
Activity (A2780 [1]): Active

SMILES: O=c1cc(N2CCOCC2)oc2c(-c3ccccc3)cccc12
Activity (A2780 [2]): Active

IC50 (A2780 [6]): 500 nM | IC50 (A2780 [40]): 650 nM
SMILES: O=C1/C(=C/c2ccccc2F)CNC/C1=C\c1ccccc1F
Activity (A2780 [3]): 27.3% | Activity (A2780 [4]): Active | Activity (A2780 [2]): Active | Activity (A2780 [5]): Active | IC50 (CHO): 4600 nM | Activity (A2780 [7]): 36.8% | Activity (A2780 [8]): 57.5% | Activity (A2780 [9]): Active | Activity (A2780 [10]): Active | Activity (A2780 [11]): inactive | Activity (A2780 [12]): tde | Activity (A2780 [13]): tde | Activity (A2780 [14]): tde | Activity (A2780 [15]): tde | Activity (A2780 [16]): tde | Activity (A2780 [17]): tde | Activity (A2780 [18]): inactive | Activity (A2780 [19]): 35.3% | Activity (A2780 [20]): Active | Activity (A2780 [21]): Active | Activity (A2780 [22]): tde | Activity (A2780 [23]): inactive | Activity (A2780 [24]): inactive | Activity (A2780 [1]): Active | Activity (A2780 [25]): Active | Activity (A2780 [26]): Active | Activity (A2780 [27]): Active | Activity (A2780 [28]): Active | Activity (A2780 [29]): Active | Activity (A2780 [30]): Active | Activity (A2780 [31]): Active | Activity (A2780 [32]): Active | Activity (A2780 [33]): Active | Activity (A2780 [34]): Active | Activity (A2780 [35]): Active | Activity (A2780 [36]): Active | Activity (A2780 [37]): Active | Activity (A2780 [38]): Active | Activity (A2780 [39]): Active
